This note sets out measurements from patent US20070122830A1, “Prohibitin-directed diagnostics and therapeutics for cancer and chemotherapeutic drug resistance” (Aurelium BioPharma Inc., priority 2005, published 2007).

Like-named read-outs stand apart in the source and are kept apart here.

Common to all, as to assay type: cell-based, human
The subject of assay [1] is MCF-7 Breast Cancer Cell Line. The assay can be described thus: MTT cytotoxicity assay, transfected MCF-7 cells plus chemotherapeutic drug. As to conditions: for fold change of EC50, Prohibitin vs Control: direction IS/IR in same cell (E42); for sensitivity to drug of prohibitin siRNA treated cells: MCF-7, FIGS. 15A-15H. The protocol: (§1) For a typical siRNA transfection, 1 nmole of the annealed siRNA duplex was mixed with 1.4 ml of Opti-MEM reagent (Invitrogen). In another tube, […] of Oligofectamine reagent (Invitrogen, Carlsbad, Calif.) was mixed with […] of Opti-MEM. The two solutions were combined and mixed gently by inversion and incubated for 20 min. at RT. The resulting solution was added to the cultured cells drop by drop in a 10 cm dish (cells are approximately 40-50% confluent). The next day the transfected cells were trypsinized and seeded in 6 or 96-well plates and further incubated for the indicated amount of time (assay dependent) before further analysis.
(§2) Cell survival was determined using the MTT cytotoxicity assay (see, e.g., Tokuyama et al. (2005) Anticancer Res. 25(1A): 17-22). RNA-transfected cells were seeded in triplicate into 96-well plates at 5×10^3 cells/well 48 hrs post-transfection. The cells were incubated for an additional 16 to 24 hrs before they were exposed to increasing concentrations of cytotoxic drugs. Doxorubicin (adriamycin), cisplatinum, taxol, vinblastin, vincristin, and mitoxantrone were all purchased from Sigma Corp. (St. Louis, Mo.). […] Appropriate dilutions were made in the respective media for each cell line. Following addition of drugs, incubation was continued for an additional 72 hrs. […] of MTT dye (5 mg/ml) were added into each well and the plate was further incubated at 37° C. for 4 hrs. The dye was solubilized with 10% Triton X-100, 0.01 N HCl and further incubated at 37° C. in the dark for 30 min. Cell viability was determined by measure of absorption at 570 nm in a Wallac multiwell plate reader (PerkinElmer, Inc., Boston, Mass.). The averages of triplicate wells were plotted using the Prism software (GraphPad Software, Inc., San Diego, Calif.).
Cell survival was determined as described in Example 3 above.
(In general: Tetrazolium dyes change colour on reduction, which living cells bring about.)

In assay [2] the test system is SKOV3 Ovarian Cancer Cell Line. Description: MTT cytotoxicity assay, transfected SKOV3 cells plus chemotherapeutic drug. As to conditions: for EC50 / fold change of EC50, Prohibitin vs Control: SKOV3 cells; for fold change of EC50, Prohibitin vs Control: direction IS/IR in same cell (E54); for IC50: Homo sapiens, SK-OV-3, SKOV3 cells. As to the method: as §1
as §2, with “RNA-transfected” for “Cell survival was determined using the MTT cytotoxicity assay (see, e.g., Tokuyama et al. (2005) Anticancer Res. 25(1A): 17-22). RNA-transfected”, “drugs.” for “drugs. Doxorubicin (adriamycin), cisplatinum, taxol, vinblastin, vincristin, and mitoxantrone were all purchased from Sigma Corp. (St. Louis, Mo.).”
Each table summarizes the results of an individual experiment performed in triplicate.

In assay [3] the test system is MDA Breast Cancer Cell Line. Description: MTT cytotoxicity assay, transfected MDA cells plus chemotherapeutic drug. The note with it: for EC50 / fold change of EC50, Prohibitin vs Control / IC50: MDA cells; for sensitivity to drug of prohibitin siRNA treated cells compared to mock-treated cells / sensitivity to drug of prohibitin siRNA treated cells compared to controls / sensitivity to drug of prohibitin siRNA treated cells compared to mock controls: MDA; for sensitivity to drug of prohibitin siRNA treated cells compared to mock-treated cells: FIG. 9A-9H; for IC50: Homo sapiens. As to the method: as §1
as §2, with “RNA-transfected” for “Cell survival was determined using the MTT cytotoxicity assay (see, e.g., Tokuyama et al. (2005) Anticancer Res. 25(1A): 17-22). RNA-transfected”, “drugs.” for “drugs. Doxorubicin (adriamycin), cisplatinum, taxol, vinblastin, vincristin, and mitoxantrone were all purchased from Sigma Corp. (St. Louis, Mo.).”

Setting [4] is: MCF-7 cells, prohibitin (siRNA) transfected, Table 9, read-out: EC50, Prohibitin.
The mark [5] stands for this setting: mock-transfected control, Table 10 experiment, read-out: EC50, Control.
Setting [6] is: mock-transfected control, Table 11 experiment, read-out: EC50, Control.
Setting [7] is: prohibitin (siRNA) transfected, Table 10 experiment, read-out: EC50, Prohibitin.
Setting [8] is: prohibitin (siRNA) transfected, Table 11 experiment, read-out: EC50, Prohibitin.
Where [9] appears, read: mock-transfected control, Table 3 experiment, read-out: EC50, Control.
Setting [10] is: mock-transfected control, Table 4 experiment, read-out: EC50, Control.
Setting [11] is: mock-transfected control, Table 5 experiment, read-out: EC50, Control.
The mark [12] stands for this setting: mock-transfected control, Table 6 experiment, read-out: EC50, Control.
The mark [13] stands for this setting: mock-transfected control, Table 7 experiment, read-out: EC50, Control.
Setting [14] is: mock-transfected control, Table 8 experiment, read-out: EC50, Control.
Where [15] appears, read: prohibitin (siRNA) transfected, Table 3 experiment, read-out: EC50, Prohibitin.
[16] abbreviates: prohibitin (siRNA) transfected, Table 4 experiment, read-out: EC50, Prohibitin.
The mark [17] stands for this setting: prohibitin (siRNA) transfected, Table 5 experiment, read-out: EC50, Prohibitin.
Where [18] appears, read: prohibitin (siRNA) transfected, Table 6 experiment, read-out: EC50, Prohibitin.
[19] abbreviates: prohibitin (siRNA) transfected, Table 7 experiment, read-out: EC50, Prohibitin.
The mark [20] stands for this setting: prohibitin (siRNA) transfected, Table 8 experiment, read-out: EC50, Prohibitin.
The mark [21] stands for this setting: Table 3 experiment, direction IS/IR in same cell (E6).
The mark [22] stands for this setting: Table 4 experiment, direction IS/IR in same cell (E12).
[23] abbreviates: Table 6 experiment, direction IS/IR in same cell (E24).
[24] abbreviates: Table 7 experiment, direction IS/IR in same cell (E30).

As usually defined, the EC50 is the midpoint of the concentration-response curve. With `N.N.[Cl][Pt][Cl]` [Cisplatinum], the EC50 stood at 118 µM in assay [1] (MCF-7 cells, mock-transfected control, Table 9, read-out: EC50, Control); 151 µM in assay [1] (setting [4]); 22.4 µM in assay [2] (setting [5]); 50 µM in assay [2] (setting [6]); 26.3 µM in assay [2] (setting [7]); 68.8 µM in assay [2] (setting [8]). For the same molecule, the EC50 is 255 µM in assay [3] (setting [9]); 374 µM in assay [3] (setting [10]); 94.3 µM in assay [3] (setting [11]); 164 µM in assay [3] (setting [12]); 76.8 µM in assay [3] (setting [13]); 29.3 µM in assay [3] (setting [14]). Moreover, the EC50 in assay [3] (setting [15]) was determined as 189 µM; in assay [3] (setting [16]) it was 271 µM; in assay [3] (setting [17]), 124 µM; in assay [3] (setting [18]), 189 µM; in assay [3] (setting [19]), 54.5 µM; in assay [3] (setting [20]), 57 µM. Further, in assay [1] (MCF-7 cells, Table 9), the “change in sensitivity to the drug, Prohibitin vs Control” value is “IR (IR: “increased in resistance” to the drug)”. Further, the “fold change of EC50, Prohibitin vs Control” value (shortened to “fold change of EC50”) in assay [1] (MCF-7 cells, Table 9) came out at 1.3 x; in assay [2] (Table 11 experiment), 1.4 x; in assay [3] (setting [21]), 1.2 x; in assay [3] (setting [22]), 1.4 x; in assay [3] (Table 5 experiment, direction IS/IR in same cell (E18)), 1.3 x; in assay [3] (setting [23]), 1.1 x. Moreover, the “fold change of EC50” value in assay [3] (setting [24]) came out at 1.4 x; in assay [3] (Table 8 experiment, direction IS/IR in same cell (E36)) it was 1.9 x. In assay [3], the “sensitivity to drug of prohibitin siRNA treated cells compared to mock-treated cells” value is reported as “increased sensitivity”. For the same molecule, the “sensitivity to drug of prohibitin siRNA treated cells compared to controls” value (shortened to “sensitivity to drug … compared to controls”) in assay [3] (FIGS. 10A-10H) is “more sensitive”. The “sensitivity to drug of prohibitin siRNA treated cells compared to mock controls” value (shortened to “sensitivity to drug … compared to mock controls”) in assay [3] (FIGS. 13A-13H) was “increased sensitivity”.
On to `CC(=O)O[C@@]12CO[C@@H]1C[C@H](O)[C@@]1(C)C(=O)[C@H](O)C3=C(C)[C@@H](OC(=O)[C@H](O)[C@@H](NC(=O)OC(C)(C)C)c4ccccc4)C[C@@](O)([C@@H](OC(=O)c4ccccc4)[C@H]21)C3(C)C` [Docetaxel], for which the “sensitivity to drug of prohibitin siRNA treated cells” value in assay [1] is recorded as “more sensitive”. Besides, in assay [1] (setting [4]), the EC50 amounted to 0.00534 µM. Moreover, the “fold change of EC50” value in assay [1] (MCF-7 cells, Table 9) is on record as 13.8 x.
For `COc1cccc2c1C(=O)c1c(O)c3c(c(O)c1C2=O)C[C@@](O)(C(=O)CO)C[C@@H]3O[C@H]1C[C@H](N)[C@H](O)[C@H](C)O1` [Doxorubicin], the “sensitivity to drug of prohibitin siRNA treated cells” value in assay [1] is on record as “more sensitive”. Besides, the EC50 in assay [1] (setting [4]) stood at 0.03 µM; in assay [2] (setting [7]), 0.0128 µM; in assay [2] (setting [8]), 1.23e-05 µM; in assay [3] (setting [15]), 0.00173 µM; in assay [3] (setting [16]) it was 0.00125 µM; in assay [3] (setting [17]) it was 0.000993 µM. Also, the figures for the concentration for a half-maximal effect (EC50) in assay [3] (setting [18]) and in assay [3] (setting [20]) were 0.00172 µM and 0.000139 µM, respectively. In addition, the IC50 in assay [2] (setting [5]) was found to be 21.3 nM; in assay [2] (setting [6]), 0.0265 nM; in assay [3] (setting [9]), 0.00146 µM; in assay [3] (setting [10]), 0.000873 µM; in assay [3] (setting [11]), 0.00175 µM; in assay [3] (setting [12]), 0.00225 µM. Further, the IC50 in assay [3] (setting [13]) is 0.000232 µM; in assay [3] (setting [14]) it was 0.000177 µM. Besides, the “sensitivity to drug … compared to controls” value in assay [3] (FIG. 11A) is “increased sensitivity”. The “sensitivity to drug … compared to mock controls” value is on record as “increased sensitivity” in assay [3] (FIGS. 13A-13H) and “more sensitive” in assay [3] (FIGS. 14A-14H).
With `COc1cc([C@@H]2c3cc4c(cc3[C@@H](O[C@@H]3O[C@@H]5CO[C@@H](C)O[C@H]5[C@H](O)[C@H]3O)[C@H]3COC(=O)[C@H]23)OCO4)cc(OC)c1O` [Etoposide], the EC50 is 7.28 µM in assay [1] (Homo sapiens, MCF7, MCF-7 cells, prohibitin (siRNA) transfected, Table 9, read-out: EC50, Prohibitin); 0.611 µM in assay [2] (setting [7]); 0.241 µM in assay [2] (setting [8]). For the same molecule, the “sensitivity to drug of prohibitin siRNA treated cells” value in assay [1] was “more sensitive”. Moreover, the “fold change of EC50” value in assay [1] (MCF-7 cells, Table 9) was 2.2 x; in assay [3] (setting [22]), 1.3 x. In addition, the IC50 stood at 621 nM in assay [2] (setting [5]); 148 nM in assay [2] (setting [6]); 78.9 µM in assay [3] (setting [9]); 83.9 µM in assay [3] (setting [10]); 9.56 µM in assay [3] (setting [13]); 9.31 µM in assay [3] (setting [14]). For the same molecule, the IC50 stood at 76.5 µM in assay [3] (setting [15]), 63 µM in assay [3] (setting [16]), 10 µM in assay [3] (setting [19]) and 9.64 µM in assay [3] (setting [20]). Moreover, the “sensitivity to drug … compared to controls” value in assay [3] (FIGS. 10A-10H) is on record as “more sensitive”.
On to `S=P(N1CC1)(N1CC1)N1CC1` [Thiotepa], for which the IC50 in assay [2] (setting [5]) came to 35000 nM; in assay [2] (setting [6]) it was 16500 nM; in assay [3] (setting [9]) it was 600 µM; in assay [3] (setting [10]) it was 510 µM; in assay [3] (setting [12]), 628 µM; in assay [3] (setting [13]), 146 µM. The IC50 in assay [3] (setting [14]) was 159 µM; in assay [3] (setting [15]), 475 µM; in assay [3] (setting [16]), 291 µM; in assay [3] (setting [18]), 527 µM; in assay [3] (setting [19]) it was 97.1 µM; in assay [3] (setting [20]), 164 µM. Also, the EC50 in assay [2] (setting [7]) is 24.9 µM; in assay [2] (setting [8]), 13.9 µM. Besides, the “fold change of EC50” value in assay [2] (Table 11 experiment) came to 1.2 x; in assay [3] (setting [21]), 1.3 x; in assay [3] (setting [22]), 1.7 x; in assay [3] (setting [23]) it was 1.2 x; in assay [3] (setting [24]), 1.5 x. Further, the “sensitivity to drug of prohibitin siRNA treated cells compared to mock-treated cells” value in assay [3] was “increased sensitivity”. Also, the “sensitivity to drug … compared to controls” value in assay [3] (FIGS. 10A-10H) is “more sensitive”. Moreover, the “sensitivity to drug … compared to mock controls” value was “increased sensitivity” in assay [3] (FIGS. 12A-12D) and “increased the sensitivity” in assay [3] (FIGS. 13A-13H).
With `CC[C@]1(O)C[C@@H]2CN(CCc3c([nH]c4ccccc34)[C@@](C(=O)OC)(c3cc4c(cc3OC)N(C)[C@H]3[C@@](O)(C(=O)OC)[C@H](OC(C)=O)[C@]5(CC)C=CCN6CC[C@]43[C@@H]65)C2)C1` [Vinblastin], the values for the EC50 in assay [3] (setting [11]) and in assay [3] (setting [17]) were 0.157 µM and 2.55 µM, respectively.
